We go through three compounds from paper PMC8115619, “Generation of a chemical genetic model for JAK3” (Scientific Reports, 2021).

Entries after “also recorded” stand apart in the source; their conditions may differ.

For assay [1], the system named is IL-10 induced STAT3 phosphorylation in BMDMs. The experiment in a line: IL-10 induced STAT3 phosphorylation in macrophages. The format is cell-based, mouse. The settings on record: wild type BMDMs, inhibitor 2 h, 10 ng/ml IL-10. The method, then:
(§1) (A) BMDMs were isolated from wild type mice. Cells were incubated with the indicated inhibitors in μM for 2 h before stimulation with 10 ng/ml IL-4 for 30 min. The levels of phosphorylated STAT6 were then determined by immunoblotting. (B) As (A) except cells were stimulated 10 ng/ml GM-CSF and the levels of phosphorylated STAT5 determined. (C) As (A) except cells were stimulated 10 ng/ml IL-10 and the levels of phosphorylated STAT3 determined. (D) As (A) except cells were stimulated 10 ng/ml IFNβ and the levels of phosphorylated STAT1 determined. For A–D, levels of ERK1/2 were determined as a loading control.
Bone marrow derived macrophages (BMDMs) were cultured as described. Briefly, bone marrow was flushed in PBS from the femurs and tibias of mice. Cells were cultured on bacterial grade plastic for 7 days at 37 °C, 5% CO2. Cells were then detached using Versene (Gibco), re-plated on tissue culture plastic in BMDM media (in DMEM supplemented with 10% heat inactivated FBS (Labtech), 2 mM L-glutamine, 100 U/ml penicillin G, 100 μg/ml streptomycin and 0.25 μg/ml amphotericin, 5 ng/ml M-CSF) and used within 48 h. Where indicated cells were stimulated with 10 ng/ml IL-4, 10 ng/ml GM-CSF, 10 ng/ml IL-10 or 10 ng/ml IFNβ. All cytokines were from PeproTech.
(§2) Cells were lysed directly into SDS sample buffer and aliquots run on 10% polyacrylamide gels using standard methods. Proteins were transferred onto nitrocellulose membranes, and specific proteins were detected by immunoblotting. Antibodies against tyrosine phosphorylated STATs were from Cell Signaling Technology (phospho-STAT1 #9167, phospho-STAT3 #9131, phospho-STAT5 #4322 and phospho-STAT6 #9361). […] Bands were detected using Clarity ECL reagents from BioRad and imaged on a Licor Odyssey Fc system. Quantification was carried out using Licor Image Studio software. After correction for the ERK1/2 levels to account for loading differences, percentage inhibition was calculated relative to the IL-4 stimulated condition. IC50 values were calculated using the same methods as for the in vitro IC50 values.

The test system of assay [2] is IFNβ induced STAT1 phosphorylation in BMDMs. The experiment in a line: IFNβ induced STAT1 phosphorylation in macrophages. Type of assay: cell-based, mouse. To be noted: wild type BMDMs, 10 μM inhibitor 2 h, 10 ng/ml IFNβ. The method, then: as §1
Bone marrow derived macrophages (BMDMs) were cultured as described. Briefly, bone marrow was flushed in PBS from the femurs and tibias of mice. […]
as §2, with “immunoblotting.” for “immunoblotting. Antibodies against tyrosine phosphorylated STATs were from Cell Signaling Technology (phospho-STAT1 #9167, phospho-STAT3 #9131, phospho-STAT5 #4322 and phospho-STAT6 #9361).”

For a further assay, the target named is SYK (Homo sapiens, UniProt P43405). Nature of the assay: Selectivity screen SYK. The format is biochemical. To be noted: 1 µM inhibitor, mean. As to the method: (§3) For the in vitro kinase assay, JAK3 (5–20 mU diluted in 50 mM Tris pH 7.5, 0.1 mM EGTA, 0.05% β-mercaptoethanol, 1 mg/ml BSA) was assayed against PDKtide ([…]) in a final volume of 25.5 µl containing 50 mM Tris pH 7.5, 0.1 mM EGTA, 0.05% β-mercaptoethanol, 100 µM substrate peptide, 10 mM magnesium acetate and 0.02 mM [33P-γ-ATP] (50–1000 cpm/pmole) and incubated for 30 min at room temperature. Assays were started by the addition of the ATP and stopped by addition of 5 µl of 0.5 M (3%) orthophosphoric acid and then harvested onto P81 Unifilter plates with a wash buffer of 50 mM orthophosphoric acid. To determine the Km for ATP, assays were run using 1, 5, 10, 20, 50, 100, 200, 400, 500 μM ATP and Km derived by non-linear regression fitting to the Michaelis–Menten equation v = Vmax[S]/(Km + [S]). IC50 values for inhibitors via non-linear regression using a parameter model: Y = Bottom + (Top–Bottom)/(1 + (IC50/X)^HillSlope). Non-linear regression was carried out in Prism (version 8). In vitro selectivity screen was carried out as described previously.

In another assay the target is MPSK1 (Homo sapiens, UniProt O75716). Nature of the assay: Selectivity screen MPSK1. To be noted: 1 µM inhibitor, mean. The format is biochemical. As to the method: as §3
A further assay deals with p38b MAPK (Homo sapiens, UniProt Q15759). The experiment in a line: Selectivity screen p38b MAPK. To be noted: 1 µM inhibitor, mean. The format is biochemical. The method, then: as §3
A further assay has as its target MAPKAP-K2 (Homo sapiens, UniProt P49137). Nature of the assay: Selectivity screen MAPKAP-K2. The format is biochemical. To be noted: 1 µM inhibitor, mean. As to the method: as §3
The next assay deals with MKK2 (Homo sapiens, UniProt P36507). Nature of the assay: Selectivity screen MKK2. The format is biochemical. To be noted: 1 µM inhibitor, mean. As to the method:
as §3

The target of the next assay is BRK (Homo sapiens, UniProt Q13882). Nature of the assay: Selectivity screen BRK. Type of assay: biochemical. The settings on record: 1 µM inhibitor, mean.
Another assay concerns the target IKKe (Homo sapiens, UniProt Q14164). The experiment in a line: Selectivity screen IKKe. Type of assay: biochemical. To be noted: 1 µM inhibitor, mean. As to the method:
as §3

For the next assay, the target named is SIK3 (Homo sapiens, UniProt Q9Y2K2). The experiment in a line: Selectivity screen SIK3. Type of assay: biochemical. To be noted: 1 µM inhibitor, mean. The method, then:
as §3

For another assay, the target named is IRR (Homo sapiens, UniProt P14616). Nature of the assay: Selectivity screen IRR. The format is biochemical. To be noted: 1 µM inhibitor, mean. As to the method: as §3
IRR, sequence (P14616 27-1297): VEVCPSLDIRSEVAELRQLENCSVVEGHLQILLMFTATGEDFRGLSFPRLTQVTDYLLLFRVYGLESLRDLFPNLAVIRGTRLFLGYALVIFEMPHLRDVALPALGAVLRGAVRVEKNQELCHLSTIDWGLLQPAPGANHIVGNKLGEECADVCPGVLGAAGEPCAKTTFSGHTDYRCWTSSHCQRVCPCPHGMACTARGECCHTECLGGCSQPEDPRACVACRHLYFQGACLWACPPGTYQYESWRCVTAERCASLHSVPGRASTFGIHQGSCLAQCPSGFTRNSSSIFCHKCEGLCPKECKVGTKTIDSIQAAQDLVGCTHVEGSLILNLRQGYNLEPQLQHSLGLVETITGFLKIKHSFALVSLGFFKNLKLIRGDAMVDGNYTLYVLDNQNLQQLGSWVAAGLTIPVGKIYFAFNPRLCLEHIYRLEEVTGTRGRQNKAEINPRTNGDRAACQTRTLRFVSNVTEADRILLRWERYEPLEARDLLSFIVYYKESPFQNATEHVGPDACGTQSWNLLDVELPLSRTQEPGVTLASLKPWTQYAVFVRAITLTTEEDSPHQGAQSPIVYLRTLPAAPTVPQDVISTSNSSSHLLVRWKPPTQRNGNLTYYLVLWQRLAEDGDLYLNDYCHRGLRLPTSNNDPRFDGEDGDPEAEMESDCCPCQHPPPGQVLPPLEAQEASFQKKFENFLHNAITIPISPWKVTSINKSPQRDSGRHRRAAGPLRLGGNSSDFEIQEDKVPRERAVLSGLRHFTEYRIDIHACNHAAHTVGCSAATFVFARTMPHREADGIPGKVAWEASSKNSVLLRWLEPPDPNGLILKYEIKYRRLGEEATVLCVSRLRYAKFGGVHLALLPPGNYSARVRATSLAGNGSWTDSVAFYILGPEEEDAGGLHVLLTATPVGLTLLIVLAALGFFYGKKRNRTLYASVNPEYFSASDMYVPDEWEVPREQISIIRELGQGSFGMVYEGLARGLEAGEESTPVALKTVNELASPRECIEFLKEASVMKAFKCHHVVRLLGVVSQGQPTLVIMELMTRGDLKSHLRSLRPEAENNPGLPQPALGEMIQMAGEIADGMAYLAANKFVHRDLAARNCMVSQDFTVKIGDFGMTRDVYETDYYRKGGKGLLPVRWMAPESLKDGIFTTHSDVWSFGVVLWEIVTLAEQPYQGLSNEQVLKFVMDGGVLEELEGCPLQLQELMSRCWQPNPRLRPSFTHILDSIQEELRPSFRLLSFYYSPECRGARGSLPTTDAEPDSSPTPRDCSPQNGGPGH
In the next assay the target is MAP4K3 (Homo sapiens, UniProt Q8IVH8). The experiment in a line: Selectivity screen MAP4K3. Type of assay: biochemical. The settings on record: 1 µM inhibitor, mean. As to the method: as §3
A further assay addresses DDR2 (Homo sapiens, UniProt Q16832). The experiment in a line: Selectivity screen DDR2. The format is biochemical. The settings on record: 1 µM inhibitor, mean. The method, then:
as §3

The target in the next assay is RSK1 (Homo sapiens, UniProt Q15418). Nature of the assay: Selectivity screen RSK1. Type of assay: biochemical. The settings on record: 1 µM inhibitor, mean. As to the method:
as §3

The next assay has as its target YES1 (Homo sapiens, UniProt P07947). The experiment in a line: Selectivity screen YES1. Type of assay: biochemical. To be noted: 1 µM inhibitor, mean. As to the method: as §3
The next assay deals with PIM1 (Homo sapiens, UniProt P11309). Nature of the assay: Selectivity screen PIM1. The format is biochemical. The settings on record: 1 µM inhibitor, mean. The method, then: as §3
Another assay deals with TTK (Homo sapiens, UniProt P33981). Nature of the assay: Selectivity screen TTK. Type of assay: biochemical. The settings on record: 1 µM inhibitor, mean. As to the method:
as §3

The target in another assay is S6K1 (Homo sapiens, UniProt P23443). Nature of the assay: Selectivity screen S6K1. Type of assay: biochemical. To be noted: 1 µM inhibitor, mean. The method, then: as §3
S6K1, sequence (P23443 whole entry): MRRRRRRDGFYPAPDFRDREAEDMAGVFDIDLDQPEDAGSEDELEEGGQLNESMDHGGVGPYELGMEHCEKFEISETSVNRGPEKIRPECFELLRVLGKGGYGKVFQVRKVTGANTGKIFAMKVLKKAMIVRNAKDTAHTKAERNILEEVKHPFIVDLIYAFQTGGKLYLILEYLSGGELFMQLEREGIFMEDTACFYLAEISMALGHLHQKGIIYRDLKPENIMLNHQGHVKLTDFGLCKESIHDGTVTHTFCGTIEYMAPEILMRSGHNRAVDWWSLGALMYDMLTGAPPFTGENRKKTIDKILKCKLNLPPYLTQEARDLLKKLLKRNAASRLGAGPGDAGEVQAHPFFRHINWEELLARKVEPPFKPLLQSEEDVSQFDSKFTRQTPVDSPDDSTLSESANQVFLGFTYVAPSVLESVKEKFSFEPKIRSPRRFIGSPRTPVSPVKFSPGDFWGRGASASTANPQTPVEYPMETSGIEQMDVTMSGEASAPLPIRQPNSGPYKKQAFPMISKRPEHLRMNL
The target of the next assay is EPH-B2 (Homo sapiens, UniProt P29323). The experiment in a line: Selectivity screen EPH-B2. Type of assay: biochemical. To be noted: 1 µM inhibitor, mean. As to the method: as §3
The next assay concerns the target PAK2 (Homo sapiens, UniProt Q13177). The experiment in a line: Selectivity screen PAK2. Type of assay: biochemical. The settings on record: 1 µM inhibitor, mean. As to the method:
as §3

A further assay has as its target CAMK1 (Homo sapiens, UniProt Q14012). Nature of the assay: Selectivity screen CAMK1. The format is biochemical. To be noted: 1 µM inhibitor, mean. The method, then: as §3
For another assay, the target named is ASK1 (Homo sapiens, UniProt Q99683). Nature of the assay: Selectivity screen ASK1. The format is biochemical. To be noted: 1 µM inhibitor, mean.
ASK1, sequence (Q99683 whole entry): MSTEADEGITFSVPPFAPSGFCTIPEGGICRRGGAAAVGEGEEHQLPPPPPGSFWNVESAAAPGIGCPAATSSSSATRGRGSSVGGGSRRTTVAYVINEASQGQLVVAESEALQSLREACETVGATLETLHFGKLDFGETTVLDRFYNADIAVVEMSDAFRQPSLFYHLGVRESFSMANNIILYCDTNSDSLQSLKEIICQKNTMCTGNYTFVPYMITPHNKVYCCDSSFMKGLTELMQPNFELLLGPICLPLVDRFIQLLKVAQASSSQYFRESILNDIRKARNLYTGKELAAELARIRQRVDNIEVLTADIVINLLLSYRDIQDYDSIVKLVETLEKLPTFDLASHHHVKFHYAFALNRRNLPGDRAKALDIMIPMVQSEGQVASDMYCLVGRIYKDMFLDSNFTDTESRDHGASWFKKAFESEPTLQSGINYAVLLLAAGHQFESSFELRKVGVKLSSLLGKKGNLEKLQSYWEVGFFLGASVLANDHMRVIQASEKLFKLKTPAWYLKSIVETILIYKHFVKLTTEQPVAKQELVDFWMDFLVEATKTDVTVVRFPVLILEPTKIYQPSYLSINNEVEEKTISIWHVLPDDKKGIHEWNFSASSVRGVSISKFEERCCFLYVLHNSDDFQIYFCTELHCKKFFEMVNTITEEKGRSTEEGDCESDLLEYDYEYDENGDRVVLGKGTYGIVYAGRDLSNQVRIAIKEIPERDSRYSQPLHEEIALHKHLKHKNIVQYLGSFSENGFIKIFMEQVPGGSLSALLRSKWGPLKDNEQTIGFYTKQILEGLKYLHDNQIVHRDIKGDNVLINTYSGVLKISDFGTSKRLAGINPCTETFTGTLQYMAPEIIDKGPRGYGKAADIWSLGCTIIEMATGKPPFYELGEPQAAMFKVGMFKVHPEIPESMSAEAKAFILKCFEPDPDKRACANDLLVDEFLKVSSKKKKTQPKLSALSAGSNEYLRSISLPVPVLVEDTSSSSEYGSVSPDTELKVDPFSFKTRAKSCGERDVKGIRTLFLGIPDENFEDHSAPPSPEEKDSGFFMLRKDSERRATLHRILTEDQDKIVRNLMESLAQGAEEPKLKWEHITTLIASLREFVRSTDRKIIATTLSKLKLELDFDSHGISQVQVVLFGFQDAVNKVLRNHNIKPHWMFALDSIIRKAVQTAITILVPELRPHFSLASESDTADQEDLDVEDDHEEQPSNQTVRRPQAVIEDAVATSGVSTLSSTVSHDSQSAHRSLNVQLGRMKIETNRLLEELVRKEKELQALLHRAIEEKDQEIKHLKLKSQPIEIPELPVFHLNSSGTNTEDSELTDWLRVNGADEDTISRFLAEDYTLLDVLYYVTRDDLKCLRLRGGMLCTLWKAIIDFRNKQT
A further assay addresses CK2 (Homo sapiens, UniProt P68400). Nature of the assay: Selectivity screen CK2. The format is biochemical. To be noted: 1 µM inhibitor, mean. The method, then: as §3

PAK2, sequence (Q13177 whole entry): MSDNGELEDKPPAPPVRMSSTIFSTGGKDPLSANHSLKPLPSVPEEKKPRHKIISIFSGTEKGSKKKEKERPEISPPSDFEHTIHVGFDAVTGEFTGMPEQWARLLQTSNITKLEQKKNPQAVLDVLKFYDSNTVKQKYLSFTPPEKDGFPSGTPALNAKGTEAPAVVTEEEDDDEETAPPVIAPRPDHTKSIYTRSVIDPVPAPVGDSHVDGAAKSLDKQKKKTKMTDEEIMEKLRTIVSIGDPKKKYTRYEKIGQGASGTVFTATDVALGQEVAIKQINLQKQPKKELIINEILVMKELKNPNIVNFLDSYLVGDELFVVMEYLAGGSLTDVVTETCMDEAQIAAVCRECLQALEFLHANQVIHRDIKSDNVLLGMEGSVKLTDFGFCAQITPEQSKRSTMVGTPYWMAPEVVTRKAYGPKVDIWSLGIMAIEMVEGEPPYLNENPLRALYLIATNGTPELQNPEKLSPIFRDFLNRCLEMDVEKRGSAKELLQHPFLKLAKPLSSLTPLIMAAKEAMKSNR
CAMK1, sequence (Q14012 whole entry): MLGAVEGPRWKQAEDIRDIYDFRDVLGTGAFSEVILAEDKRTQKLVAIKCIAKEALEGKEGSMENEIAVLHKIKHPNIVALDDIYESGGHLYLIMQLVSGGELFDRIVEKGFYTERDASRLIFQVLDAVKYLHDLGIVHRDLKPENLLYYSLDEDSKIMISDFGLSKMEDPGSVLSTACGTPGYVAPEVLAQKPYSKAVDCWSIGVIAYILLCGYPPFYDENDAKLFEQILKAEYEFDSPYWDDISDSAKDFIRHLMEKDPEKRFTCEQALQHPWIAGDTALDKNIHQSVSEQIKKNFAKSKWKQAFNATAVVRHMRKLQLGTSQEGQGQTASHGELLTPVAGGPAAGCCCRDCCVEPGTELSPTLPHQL
TTK, sequence (P33981 whole entry): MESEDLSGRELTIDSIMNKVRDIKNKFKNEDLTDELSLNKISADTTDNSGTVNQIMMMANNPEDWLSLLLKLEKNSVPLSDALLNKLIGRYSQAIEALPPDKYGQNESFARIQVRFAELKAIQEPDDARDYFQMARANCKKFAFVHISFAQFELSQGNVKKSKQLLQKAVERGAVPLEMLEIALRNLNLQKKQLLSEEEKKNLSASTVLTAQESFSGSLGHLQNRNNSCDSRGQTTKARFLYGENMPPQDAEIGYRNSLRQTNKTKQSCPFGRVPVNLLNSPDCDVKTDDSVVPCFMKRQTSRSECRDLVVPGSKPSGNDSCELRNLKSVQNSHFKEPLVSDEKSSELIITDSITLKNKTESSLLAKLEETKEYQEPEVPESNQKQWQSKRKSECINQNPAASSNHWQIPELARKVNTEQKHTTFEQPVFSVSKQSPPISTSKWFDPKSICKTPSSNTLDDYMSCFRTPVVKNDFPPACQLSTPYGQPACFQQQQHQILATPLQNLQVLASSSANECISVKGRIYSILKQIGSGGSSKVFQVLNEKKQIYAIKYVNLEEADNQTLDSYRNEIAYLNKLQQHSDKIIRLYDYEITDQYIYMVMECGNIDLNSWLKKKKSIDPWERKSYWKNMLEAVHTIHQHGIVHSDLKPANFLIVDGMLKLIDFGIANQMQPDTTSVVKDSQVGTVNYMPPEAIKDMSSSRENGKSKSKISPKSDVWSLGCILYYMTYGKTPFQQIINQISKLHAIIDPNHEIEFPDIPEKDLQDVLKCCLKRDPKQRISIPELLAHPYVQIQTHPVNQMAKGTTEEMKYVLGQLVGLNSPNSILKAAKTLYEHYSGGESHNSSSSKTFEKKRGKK

As for `C=CC(=O)N1C[C@H](Nc2ncnc3[nH]ccc23)CC[C@@H]1C` [PF-06651600, 1-((2S,5R)-5-((7H-Pyrrolo[2,3-d]pyrimidin-4-yl)amino)-2-methylpiperidin-1-yl)prop-2-en-1-one, reference compound], the “effect on IL-10 signaling (IL-10 induced STAT3 phosphorylation)” value is reported as “did not block” in assay [1] and “no effect” in assay [1] (listed as PF-0665160). Moreover, in assay [2], the “inhibition of IFNβ induced STAT1 phosphorylation” value is “did not block”.

For the compound `C=CC(=O)Nc1cccc(CNc2nc(Nc3ccc(N4CCN(C)CC4)cc3OC)ncc2Cl)c1` [TL6-144], at SYK, the “activity remaining in the presence of the inhibitor: SYK” value is 107. Also, the “activity remaining in the presence of the inhibitor: MPSK1” value on MPSK1 stood at 91. For the same compound, the “activity remaining in the presence of the inhibitor: p38b MAPK” value at p38b MAPK is recorded as 93. Also, on MAPKAP-K2, the “activity remaining in the presence of the inhibitor: MAPKAP-K2” value turned out to be 103. Moreover, on MKK2, the “activity remaining in the presence of the inhibitor: MKK2” value is 93. At BRK, the “activity remaining in the presence of the inhibitor: BRK” value was found to be 94. The “activity remaining in the presence of the inhibitor: IKKe” value at IKKe came out at 100. Moreover, on SIK3, the “activity remaining in the presence of the inhibitor: SIK3” value was determined as 89. Also, the “activity remaining in the presence of the inhibitor: IRR” value at IRR came to 56. At MAP4K3, the “activity remaining in the presence of the inhibitor: MAP4K3” value was determined as 83. Further, at DDR2, the “activity remaining in the presence of the inhibitor: DDR2” value came out at 83. Besides, the “activity remaining in the presence of the inhibitor: RSK1” value on RSK1 was 61. The “activity remaining in the presence of the inhibitor: YES1” value at YES1 is reported as 89. Besides, the “activity remaining in the presence of the inhibitor: PIM1” value on PIM1 is 95. Also, on TTK, the “activity remaining in the presence of the inhibitor: TTK” value is on record as 96. Also, the “activity remaining in the presence of the inhibitor: S6K1” value at S6K1 was determined as 90. In addition, at EPH-B2, the “activity remaining in the presence of the inhibitor: EPH-B2” value was determined as 96. Besides, the “activity remaining in the presence of the inhibitor: PAK2” value at PAK2 worked out at 81. For the same compound, the “activity remaining in the presence of the inhibitor: CAMK1” value at CAMK1 was 68. The “activity remaining in the presence of the inhibitor: ASK1” value on ASK1 stood at 108. Moreover, the “activity remaining in the presence of the inhibitor: CK2” value on CK2 is 103.

On to `C=CC(=O)Nc1cccc(CNc2nc(Nc3ccc(N4CCOCC4)cc3)ncc2Cl)c1` [TL8-52], for which, on SYK, the “activity remaining in the presence of the inhibitor: SYK” value is recorded as 63. Besides, on MPSK1, the “activity remaining in the presence of the inhibitor: MPSK1” value is given as 98. Further, the “activity remaining in the presence of the inhibitor: p38b MAPK” value at p38b MAPK stood at 96. Besides, the “activity remaining in the presence of the inhibitor: MAPKAP-K2” value at MAPKAP-K2 is given as 97. The “activity remaining in the presence of the inhibitor: MKK2” value on MKK2 was determined as 63. Further, at BRK, the “activity remaining in the presence of the inhibitor: BRK” value was 94. The “activity remaining in the presence of the inhibitor: IKKe” value at IKKe is on record as 34. In assay [1], the “effect on IL-10 signaling (IL-10 induced STAT3 phosphorylation)” value was “no effect; also recorded: did not block”. Further, the “activity remaining in the presence of the inhibitor: SIK3” value at SIK3 came out at 59. Besides, the “activity remaining in the presence of the inhibitor: IRR” value at IRR is listed as 75. Besides, the “inhibition of IFNβ induced STAT1 phosphorylation” value in assay [2] is given as “Some inhibition”. Besides, the “activity remaining in the presence of the inhibitor: MAP4K3” value on MAP4K3 was found to be 55. For the same compound, at DDR2, the “activity remaining in the presence of the inhibitor: DDR2” value came out at 76. For the same compound, the “activity remaining in the presence of the inhibitor: RSK1” value at RSK1 was 60. In addition, the “activity remaining in the presence of the inhibitor: YES1” value at YES1 came to 47. For the same compound, at PIM1, the “activity remaining in the presence of the inhibitor: PIM1” value is given as 111. For the same compound, the “activity remaining in the presence of the inhibitor: TTK” value on TTK was 49. In addition, the “activity remaining in the presence of the inhibitor: S6K1” value at S6K1 is listed as 87. The “activity remaining in the presence of the inhibitor: EPH-B2” value at EPH-B2 came to 81. The “activity remaining in the presence of the inhibitor: PAK2” value on PAK2 was found to be 75. In addition, on CAMK1, the “activity remaining in the presence of the inhibitor: CAMK1” value turned out to be 97. Besides, the “activity remaining in the presence of the inhibitor: ASK1” value on ASK1 was 93. Further, the “activity remaining in the presence of the inhibitor: CK2” value at CK2 was 103.
